Here are results for one compound from article PMC4405831, “Mast cell regulation of Na-glutamine co-transporters B0AT1 in villus and SN2 in crypt cells during chronic intestinal inflammation” (BMC Gastroenterology, 2015).

This assay has as its system T1, B0AT1.
T1 construct: gene SLC6A19; native full-length transporter in brush border membrane vesicles from ileal villus cells; not purified
As to the kind of experiment: 3H-glutamine uptake into villus BBMV, rapid filtration, […] s. It is filed as biochemical, Oryctolagus cuniculus. Conditions: labelled compound; Na-dependent uptake (100 mM NaCl minus choline), pH 7.5, voltage clamped; normal (control) rabbits.

On to `NC(=O)CC[C@H](N)C(=O)O` [glutamine], for which the Michaelis-Menten constant (Km) was found to be 24 ± 1.5 mM.
